Test results reported in PubChem BioAssay AID588737 (Vanderbilt Specialized Chemistry Center, 2011).

Molecular target: Metabotropic glutamate receptor 5 (Homo sapiens) (UniProt P41594)
Experiment: PubChem AID 588737
Settings: HEK293A hmGluR5 calcium fluorescence, glutamate CRC fold shift, at 10 µM, stronger effect = higher value; for Emax: glutamate max response with compound

Chain of Metabotropic glutamate receptor 5 (Homo sapiens) (P41594 whole entry, looked up): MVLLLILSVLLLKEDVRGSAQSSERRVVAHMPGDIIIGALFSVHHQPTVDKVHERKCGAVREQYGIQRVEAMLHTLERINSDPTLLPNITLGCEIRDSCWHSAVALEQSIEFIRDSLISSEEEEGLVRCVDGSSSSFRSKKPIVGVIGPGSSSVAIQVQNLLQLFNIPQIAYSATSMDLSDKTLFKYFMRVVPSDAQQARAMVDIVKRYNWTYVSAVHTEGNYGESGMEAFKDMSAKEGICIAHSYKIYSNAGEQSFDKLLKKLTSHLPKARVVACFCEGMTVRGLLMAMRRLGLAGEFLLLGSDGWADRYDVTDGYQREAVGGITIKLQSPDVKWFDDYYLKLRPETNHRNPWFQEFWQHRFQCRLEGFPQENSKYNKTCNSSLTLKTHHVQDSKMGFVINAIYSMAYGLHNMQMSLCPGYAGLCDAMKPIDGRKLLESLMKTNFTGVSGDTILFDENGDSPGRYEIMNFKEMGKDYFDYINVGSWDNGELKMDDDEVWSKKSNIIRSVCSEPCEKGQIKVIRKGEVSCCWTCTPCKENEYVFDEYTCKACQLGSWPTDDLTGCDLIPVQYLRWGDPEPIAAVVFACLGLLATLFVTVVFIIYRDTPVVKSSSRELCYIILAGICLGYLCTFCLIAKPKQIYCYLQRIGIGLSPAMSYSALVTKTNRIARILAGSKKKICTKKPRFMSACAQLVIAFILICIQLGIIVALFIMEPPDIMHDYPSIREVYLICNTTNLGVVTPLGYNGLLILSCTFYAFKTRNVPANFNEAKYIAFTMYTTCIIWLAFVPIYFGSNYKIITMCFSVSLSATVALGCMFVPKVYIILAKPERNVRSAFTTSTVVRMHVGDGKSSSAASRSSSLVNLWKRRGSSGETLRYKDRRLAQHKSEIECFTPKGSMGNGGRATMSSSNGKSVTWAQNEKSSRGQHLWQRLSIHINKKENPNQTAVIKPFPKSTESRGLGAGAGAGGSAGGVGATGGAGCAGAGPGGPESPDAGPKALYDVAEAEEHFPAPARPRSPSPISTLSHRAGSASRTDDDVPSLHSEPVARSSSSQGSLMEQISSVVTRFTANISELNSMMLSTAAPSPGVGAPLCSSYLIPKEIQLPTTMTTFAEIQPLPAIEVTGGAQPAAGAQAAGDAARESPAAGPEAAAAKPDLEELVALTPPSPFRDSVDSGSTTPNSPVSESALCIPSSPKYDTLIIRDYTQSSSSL

fold shift	Emax [%]	Structure (SMILES)
2.19	88	CC1(NC(=O)c2ccc(C#Cc3cccc(F)c3)cn2)COC1
9.79	95	C[C@@H](NC(=O)c1ccc(C#Cc2cccc(F)c2)cn1)C(C)(C)O
